Reference: patent publication EP0357332A2, “Renin inhibitors useful for the treatment of aids by inhibition of HIV protease” (MERCK & CO. INC., priority 1988, dated 1990)

Key:
synthetic viral protease = target: T1, synthetic viral protease (Human immunodeficiency virus type 1 group M subtype B, UniProt P03366); assay: Inhibition of beta-casein hydrolysis by synthetic viral protease (14C-beta-casein, TCA soluble counts); type: biochemical, HIV; conditions: 14C-beta-casein substrate, 4 hours
T1 construct: amino acid residues 69-167 of the pol open reading frame in Ratner, L. et al, Nature, 313, 277 (1985); made in house; host or cells: chemical synthesis (Merrifield solid-phase), no expression host
Protocol: Inhibition of the synthetic viral protease reaction, of Example 2, with ¹⁴C - beta-casein as substrate in lieu of peptide substrates, was performed. Beta-casein (Sigma) was dialysed overnight at 4°C in 40 mM KPO₄, pH 7.0. Four microliters of the substrate (0.31 mg/ml) are used in each 40 µl reaction. After reaction with the protease for 4 hours, 10 µl of 10% bovine serum albumin and 500 µl of 10% trichloroacetic acid are added, the sample placed on ice for 30 min and centrifuged for 10 min at 15,000 g. From the supernatant a 300 µl aliquot is withdrawn and diluted into 7 ml liquid scintillation cocktail. Typical background level of TCA soluble counts (no enzyme added) is 200 and no inhibitor samples give a net signal of 1000 cpm.

[1] = target: T2, synthetic protease [amino acid residues 69-167 of the pol open reading frame] (Human immunodeficiency virus type 1 group M subtype B, UniProt P03366); assay: Assay for inhibition of synthetic viral protease with peptide substrate Val-Ser-Gln-Asn-Tyr-Pro-Ile-Val (HPLC); type: biochemical, HIV; conditions: pH 5.5, 30°C, 1 hr
T2 construct: amino acid residues 69-167 of the pol open reading frame in Ratner, L. et al, Nature, 313, 277 (1985); made in house; host or cells: chemical synthesis (Merrifield solid-phase), no expression host
Protocol: Inhibition studies of the reaction of the synthetic protease [amino acid residues 69-167 of the pol open reading frame in Ratner, L. et al, Nature, 313, 277 (1985) and synthesized by Merrifield solid-phase synthesis] with a peptide substrate [Val-Ser-Gln-Asn-Tyr-Pro-Ile-Val, 2 mg/mL when the reaction is initiated] were in 50 mM Na acetate, pH 5.5, at 30°C for 1 hr. Various concentrations of inhibitor in 1.0 µl DMSO were added to 36 µl of assay solution and the reaction initiated by the addition of 4 ul (1.6 µg) of synthetic protease. The reaction was quenched with 160 ul of 12% acetic acid. Products of the reaction were separated by HPLC (VYDAC wide pore 5 cm C-18 reverse phase, acetonitrile gradient, 0.1% trifluoroacetic acid). The extent of inhibition of the reaction was determined from the peak heights of the products. HPLC of the products, independently synthesized, provided quantitation standards and confirmation of the product composition.

[2] = Inh. Conc. 0.01 µM, listed as Cmpd B
[3] = Inh. Conc. 0.1 µM, listed as Cmpd B
[4] = Inh. Conc. 1 µM, listed as Cmpd B
[5] = Inh. Conc. 0.01 µM, listed as Cmpd A
[6] = Inh. Conc. 0.1 µM, listed as Cmpd A
[7] = Inh. Conc. 1 µM, listed as Cmpd A

Compound	PERCENT INHIBITION (synthetic viral protease; Inh. Conc. 0.001 µM) [%]	PERCENT INHIBITION (synthetic viral protease; [2]) [%]	PERCENT INHIBITION (synthetic viral protease; [3]) [%]	PERCENT INHIBITION (synthetic viral protease; [4]) [%]	PERCENT INHIBITION (synthetic viral protease; Inh. Conc. 10 µM, listed as Cmpd B) [%]	PERCENT INHIBITION (synthetic viral protease; Inh. Conc. 100 µM, listed as Cmpd B) [%]	PERCENT INHIBITION ([1]; Inh. Conc. 0.001 µM) [%]	PERCENT INHIBITION [1, 2] [%]	PERCENT INHIBITION [1, 3] [%]	PERCENT INHIBITION [1, 4] [%]	PERCENT INHIBITION ([1]; Inh. Conc. 10 µM) [%]	PERCENT INHIBITION ([1]; Inh. Conc. 100 µM) [%]	PERCENT INHIBITION (synthetic viral protease; [5]) [%]	PERCENT INHIBITION (synthetic viral protease; [6]) [%]	PERCENT INHIBITION (synthetic viral protease; [7]) [%]	PERCENT INHIBITION (synthetic viral protease; Inh. Conc. 10 µM, listed as Cmpd A) [%]	PERCENT INHIBITION (synthetic viral protease; Inh. Conc. 100 µM, listed as Cmpd A) [%]	PERCENT INHIBITION [1, 5] [%]	PERCENT INHIBITION [1, 6] [%]	PERCENT INHIBITION [1, 7] [%]
CC(C)C[C@H](NC(=O)C(Cc1ccccc1)C[C@H](O)[C@H](Cc1ccccc1)NC(=O)[C@H](Cc1ccccc1)NC(=O)[C@H](Cc1ccccc1)NC(=O)OC(C)(C)C)C(=O)N[C@@H](Cc1ccccc1)C(N)=O (single isomer, unassigned) [Compound B, N′-(1,1-Dimethylethoxycarbonyl)-Phe-Phe-5(S)-Amino-4(S)-Hydroxy-6-Phenyl-2(S or R)-(Phenylmethyl)Hexanoyl-Leu-Phe-Amide]	20	67	97	95	91	60	20	60	100	100	100	100								
CC(C)C[C@H](NC(=O)C(Cc1ccccc1)C[C@H](O)[C@H](Cc1ccccc1)NC(=O)[C@H](Cc1ccccc1)NC(=O)[C@H](Cc1ccccc1)NC(=O)OC(C)(C)C)C(=O)N[C@@H](Cc1ccccc1)C(N)=O (single isomer, unassigned) [A, N′-(1,1-Dimethylethoxycarbonyl)-Phe-Phe-5(S)-Amino-4(S)-Hydroxy-6-Phenyl-2(R or S)-(Phenylmethyl)Hexanoyl-Leu-Phe-Amide]												100	0	14	82	65	97	0	20	40
